Bounds are passed on as bounds.

The first experiment deals with leukemia cell that express either wild type FLT3 or FLT3-ITD mutations.
Assay: not given
To be noted: cited from earlier work.
Take `C=CCNC1=C2C[C@@H](C)C[C@H](OC)[C@H](O)[C@@H](C)/C=C(\C)[C@H](OC(N)=O)[C@@H](OC)/C=C\C=C(/C)C(=O)NC(=CC1=O)C2=O` [Compound 17AAG]: the “growth of leukemia cells” value is “inhibited”.

The target in a further experiment is T1, FLT3 (Homo sapiens, UniProt P36888).
T1 construct: purchased Invitrogen PV3182
T1 sequence (P36888 564-993 limits assumed): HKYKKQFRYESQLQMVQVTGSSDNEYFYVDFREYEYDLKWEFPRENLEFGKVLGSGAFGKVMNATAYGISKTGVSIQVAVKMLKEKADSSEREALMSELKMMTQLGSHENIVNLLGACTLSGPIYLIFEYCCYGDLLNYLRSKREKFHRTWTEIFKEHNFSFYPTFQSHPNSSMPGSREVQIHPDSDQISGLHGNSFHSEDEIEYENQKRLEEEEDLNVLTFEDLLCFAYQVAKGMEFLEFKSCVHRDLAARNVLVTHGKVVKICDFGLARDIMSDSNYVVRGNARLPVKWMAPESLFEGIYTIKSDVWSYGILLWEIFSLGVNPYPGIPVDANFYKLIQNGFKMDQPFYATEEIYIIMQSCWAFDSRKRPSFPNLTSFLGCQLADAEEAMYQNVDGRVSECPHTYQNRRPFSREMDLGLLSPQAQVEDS
As to the kind of experiment: Flt3 biochemical assay (AlphaScreen, recombinant enzyme). To be noted: recombinant FLT3, ATP 100 μM, room temperature, 60 minutes. In general terms: Bead proximity is the source of the signal in Alpha formats.
Excerpt: Using AlphaScreen™ technology, the ability of the compounds to affect the catalytic activity of the kinases can be measured quantitatively. The peptide substrate is immobilized by the AlphaScreen™ Streptavidin Donor beads and, upon phosphorylation by a tyrosine kinase, can bind to AlphaScreen™ Anti-Phosphotyrosine (PY20) Acceptor beads. Upon excitation of these beads with laser light at 680 nm, singlet oxygen is produced. This singlet oxygen is rapidly quenched, unless the AlphaScreen™ Anti-Phosphotyrosine (PY20) Acceptor beads are in close proximity, in which case a proximity signal can be measured at 580 nm. In the presence of catalytic activity, there is a very strong proximity signal.
Centrifuge 1 minute, shake to mix, and incubate as follows:
• Mix Streptavidin Donor beads at 6× final concentration in Stop/Detection buffer. • Add 5 μL Streptavidin Donor beads to the reaction plate.
Broadly, the IC50 is the concentration at which inhibition is half-maximal. `FC(F)(F)c1ccc(CNc2ncc(Cc3c[nH]c4ncc(Cl)cc34)cn2)cn1` [Compound P-0429, [5-(5-Chloro-1H-pyrrolo[2,3-b]pyridin-3-ylmethyl)-pyrimidin-2-yl]-(6-trifluoromethyl-pyridin-3-ylmethyl)-amine]: the IC50 is less than 100 nM.

As for `C[C@H](Nc1ncc(Cc2c[nH]c3ncc(Cl)cc23)cn1)c1ccc(F)cc1` [Compound P-0428, [5-(5-Chloro-1H-pyrrolo[2,3-b]pyridin-3-ylmethyl)-pyrimidin-2-yl]-[(S)-1-(4-fluoro-phenyl)-ethyl]-amine], the IC50 was less than 1000 nM.

`COc1cnc2[nH]cc(Cc3ccc(NCc4ccccc4C(F)(F)F)nc3)c2c1` [Compound P-0326, [5-(5-Methoxy-1H-pyrrolo[2,3-b]pyridin-3-ylmethyl)-pyridin-2-yl]-(2-trifluoromethyl-benzyl)-amine]: the IC50 is less than 100 nM.

In the case of `Clc1ccc(Cl)c(CNc2ccc(Cc3c[nH]c4ncccc34)cn2)c1` [Compound P-0380, (2,5-Dichloro-benzyl)-[5-(1H-pyrrolo[2,3-b]pyridin-3-ylmethyl)-pyridin-2-yl]-amine], the IC50 is less than 1000 nM.

On to `COc1ccccc1CNc1ncc(Cc2c[nH]c3ncc(Cl)cc23)cn1` [Compound P-0433, [5-(5-Chloro-1H-pyrrolo[2,3-b]pyridin-3-ylmethyl)-pyrimidin-2-yl]-(2-methoxy-benzyl)-amine], for which the IC50 is less than 1000 nM.

Regarding `COc1cnc2[nH]cc(Cc3ccc(NCc4ccc(OC)nc4)nc3)c2c1` [Compound P-0332, (6-Methoxy-pyridin-3-ylmethyl)-[5-(5-methoxy-1H-pyrrolo[2,3-b]pyridin-3-ylmethyl)-pyridin-2-yl]-amine], the IC50 is less than 100 nM.

In the case of `CCc1ccccc1CNc1ccc(Cc2c[nH]c3ncccc23)cn1` [Compound P-0383, (2-Ethyl-benzyl)-[5-(1H-pyrrolo[2,3-b]pyridin-3-ylmethyl)-pyridin-2-yl]-amine], the IC50 is less than 1000 nM.

Turning to `COc1cnc2[nH]cc(Cc3ccc(NCc4ccc(C(F)(F)F)nc4)nc3F)c2c1` [Compound P-0187, [6-Fluoro-5-(5-methoxy-1H-pyrrolo[2,3-b]pyridin-3-ylmethyl)-pyridin-2-yl]-(6-trifluoromethyl-pyridin-3-ylmethyl)-amine], the IC50 is less than 10 nM.

In the case of `Fc1cccc(CNc2ncc(Cc3c[nH]c4ncc(Cl)cc34)cn2)c1` [Compound P-0442, [5-(5-Chloro-1H-pyrrolo[2,3-b]pyridin-3-ylmethyl)-pyrimidin-2-yl]-(3-fluoro-benzyl)-amine], the IC50 was less than 100 nM.

Take `Fc1ccc(Cl)c(CNc2ncc(Cc3c[nH]c4ncc(Cl)cc34)cn2)c1` [Compound P-0408, (2-Chloro-5-fluoro-benzyl)-[5-(5-chloro-1H-pyrrolo[2,3-b]pyridin-3-ylmethyl)-pyrimidin-2-yl]-amine]: the concentration for half-maximal inhibition (IC50) was less than 1000 nM.

`CN(C)c1ncccc1CNc1ccc(Cc2c[nH]c3ncccc23)cn1` [Compound P-0399, Dimethyl-(3-{[5-(1H-pyrrolo[2,3-b]pyridin-3-ylmethyl)-pyridin-2-ylamino]-methyl}-pyridin-2-yl)-amine]: the IC50 was less than 100 nM.

Consider `COc1cnc2[nH]cc(Cc3ccc(NCc4cc(F)ccc4F)nc3)c2c1` [Compound P-0330, (2,5-Difluoro-benzyl)-[5-(5-methoxy-1H-pyrrolo[2,3-b]pyridin-3-ylmethyl)-pyridin-2-yl]-amine], for which the IC50 was less than 1000 nM.

Consider `Cc1cc(F)ccc1CNc1ccc(Cc2c[nH]c3ncccc23)cn1` [Compound P-0372, (4-Fluoro-2-methyl-benzyl)-[5-(1H-pyrrolo[2,3-b]pyridin-3-ylmethyl)-pyridin-2-yl]-amine], for which the IC50 was less than 100 nM.

With `CNc1ncccc1CNc1ccc(Cc2c[nH]c3ncccc23)cn1` [Compound P-0385, Methyl-(3-{[5-(1H-pyrrolo[2,3-b]pyridin-3-ylmethyl)-pyridin-2-ylamino]-methyl}-pyridin-2-yl)-amine], the IC50 is less than 1000 nM.

In the case of `N#Cc1cnc2[nH]cc(Cc3ccc(NCc4ccc(Cl)cc4)nc3F)c2c1` [Compound P-0432, 3-[6-(4-Chloro-benzylamino)-2-fluoro-pyridin-3-ylmethyl]-1H-pyrrolo[2,3-b]pyridine-5-carbonitrile], the IC50 was less than 100 nM.

Consider `COc1ccc(CNc2ccc(Cc3c[nH]c4ncc(C)cc34)cn2)cn1` [Compound P-0282, (6-Methoxy-pyridin-3-ylmethyl)-[5-(5-methyl-1H-pyrrolo[2,3-b]pyridin-3-ylmethyl)-pyridin-2-yl]-amine], for which the IC50 was less than 100 nM.

Take `N#Cc1cnc2[nH]cc(Cc3ccc(NCc4ccc(C(F)(F)F)nc4)nc3Cl)c2c1` [Compound P-0232, 3-{2-Chloro-6-[(6-trifluoromethyl-pyridin-3-ylmethyl)-amino]-pyridin-3-ylmethyl}-1H-pyrrolo[2,3-b]pyridine-5-carbonitrile]: the IC50 was less than 100 nM.

`CC(Nc1ncc(Cc2c[nH]c3ncc(Cl)cc23)cn1)c1ccc(Cl)cc1` (stereo not shown) [Compound P-0427, [1-(4-Chloro-phenyl)-ethyl]-[5-(5-chloro-1H-pyrrolo[2,3-b]pyridin-3-ylmethyl)-pyrimidin-2-yl]-amine]: the IC50 is less than 1000 nM.

Take `COc1ccc(CNc2ccc(Cc3c[nH]c4ncc(C#N)cc34)cn2)cn1` [Compound P-0284, 3-{6-[(6-Methoxy-pyridin-3-ylmethyl)-amino]-pyridin-3-ylmethyl}-1H-pyrrolo[2,3-b]pyridine-5-carbonitrile]: the IC50 is less than 1000 nM.

For `COc1ccc(CNc2ccc(Cc3c[nH]c4ncccc34)cn2)c(OC)n1` [Compound P-0370, (2,6-Dimethoxy-pyridin-3-ylmethyl)-[5-(1H-pyrrolo[2,3-b]pyridin-3-ylmethyl)-pyridin-2-yl]-amine], the half-maximal inhibitory concentration (IC50) was less than 100 nM.

With `COc1ccc(CNc2ccc(Cc3c[nH]c4ncc(Cl)cc34)cn2)cn1` [Compound P-0283, [5-(5-Chloro-1H-pyrrolo[2,3-b]pyridin-3-ylmethyl)-pyridin-2-yl]-(6-methoxy-pyridin-3-ylmethyl)-amine], the IC50 is less than 100 nM.

Take `Fc1ccc(C(F)(F)F)c(CNc2ncc(Cc3c[nH]c4ncc(Cl)cc34)cn2)c1` [Compound P-0391, [5-(5-Chloro-1H-pyrrolo[2,3-b]pyridin-3-ylmethyl)-pyrimidin-2-yl]-(5-fluoro-2-trifluoromethyl-benzyl)-amine]: the IC50 was less than 10000 nM.

Turning to `N#Cc1cnc2[nH]cc(Cc3ccc(NCc4cncc(F)c4)nc3F)c2c1` [Compound P-0415, 3-{2-Fluoro-6-[(5-fluoro-pyridin-3-ylmethyl)-amino]-pyridin-3-ylmethyl}-1H-pyrrolo[2,3-b]pyridine-5-carbonitrile], the half-inhibitory concentration (IC50) is less than 1000 nM.

As to `Fc1cncc(CNc2ccc(Cc3c[nH]c4ncc(Cl)cc34)cn2)c1` [Compound P-0324, [5-(5-Chloro-1H-pyrrolo[2,3-b]pyridin-3-ylmethyl)-pyridin-2-yl]-(5-fluoro-pyridin-3-ylmethyl)-amine], the IC50 was less than 1000 nM.

In the case of `CN(C)c1ccccc1CNc1ncc(Cc2c[nH]c3ncc(Cl)cc23)cn1` [Compound P-0449, [5-(5-Chloro-1H-pyrrolo[2,3-b]pyridin-3-ylmethyl)-pyrimidin-2-yl]-(2-dimethylamino-benzyl)-amine], the IC50 was less than 10 nM.

As for `Fc1ccc(CNc2nc(Cl)c(Cc3c[nH]c4ncc(Cl)cc34)s2)cc1` [Compound P-0195, [4-Chloro-5-(5-chloro-1H-pyrrolo[2,3-b]pyridin-3-ylmethyl)-thiazol-2-yl]-(4-fluoro-benzyl)-amine], the IC50 was less than 100 nM.

With `Fc1cnc2[nH]cc(Cc3ccc(NCc4c(F)cccc4F)nc3)c2c1` [Compound P-0333, (2,6-Difluoro-benzyl)-[5-(5-fluoro-1H-pyrrolo[2,3-b]pyridin-3-ylmethyl)-pyridin-2-yl]-amine], the IC50 was less than 10000 nM.

The values are drawn from patent US9550768B2, “Kinase modulation and indications therefor” (PLEXXIKON INC., priority 2011, dated 2017).
